Experimental data taken from article PMC10967832, “Cloflucarban Illuminates Specificity and Context-Dependent Activation of the PINK1–Parkin Pathway by Mitochondrial Complex Inhibition” (Biomolecules, 2024).

Target: T1, mitochondrial complex I (Bos taurus, UniProt P03887+P17694+P25708+P42026)
T1 construct: gene MT-ND1; native complex immunocaptured from solubilized bovine heart mitochondria
Test: NADH oxidation, […] nm, immunocaptured complex
Assay type: biochemical
Conditions: ubiquinone 1, phospholipids, room temperature

| SMILES | % activity relative to vehicle at 50 μM [%] |
| --- | --- |
| Cc1nc(-c2ccc(-c3ccc(C(=O)N4CCc5cc6c(cc54)C4(CCN(C)CC4)CO6)cc3)c(C)c2)no1 [SB-224289] | 60 |
| CO/C(=C/C(N)=O)[C@H](C)[C@H](/C=C/c1csc(-c2csc([C@@H](C)/C=C/C=C/C(C)C)n2)n1)OC [myxothiazole] | 48 |
